The values below come from patent US20050233389A1, “Methods and compositions for peptide and protein labeling” (priority 2003, published 2005).

Assay [1] concerns the target BirA (Escherichia coli, UniProt P06709). Briefly: Measurement of probe ligation kinetics (HPLC). It is filed as biochemical, E. coli. The note with it: for initial rate for ligation to synthetic AP: 100 μM AP, 30° C. How it is done: (§1) HPLC assay for probe ligation to synthetic AP. The synthetic acceptor peptide (AP) with sequence […] (SEQ ID NO: 22) was synthesized by the Tufts University Core Facility. […] Following lyophilization, the peptide was redissolved in water, and the concentration was determined from the absorbance at 280 nm using the calculated extinction coefficient of 5690 M^−1cm^−1. Reaction conditions for the probe ligation to the AP were as follows: 50 mM bicine pH 8.3, 5 mM Mg(OAc)2, 4 mM ATP, 100 μM AP, 1-2 μM BirA, and 1 mM probe (either biotin or racemic ketone 1). Reactions were incubated at 30° C. for 1-2 hours, then quenched with addition of 45 mM EDTA. Reactions were analyzed on a reverse-phase HPLC column (Microsorb-MV 300 C18). Biotin ligation reactions were analyzed using a gradient of 10-43% acetonitrile/water with 0.1% TFA over 20 minutes (flow rate 1.0 mL/min); retention times were 8.2 minutes for biotin, 16.3 minutes for the AP, and 17.7 minutes for the AP-biotin conjugate. Ketone 1 ligation reactions were analyzed using a gradient of 10-46% acetonitrile/water with 0.1 % TFA over 25 minutes (flow rate 1.0 mL/min); retention times were 16.4 minutes for ketone 1, 17.9 minutes for the AP, and 22.0 minutes for the AP-ketone 1 conjugate. For MALDI-TOF analysis, the product peak was collected, diluted with matrix solution (saturated α-cyano 4-hydroxycinnamic acid in 50% acetonitrile/water with 0.05% TFA), and spotted onto the sample target. Positive-ion MALDI-TOF data was acquired in reflector mode with external calibration.
Measurement of probe ligation kinetics. For kinetic measurements, the reaction conditions were the same as above except that 0.091 μM BirA was used, and for the ketone ligation reactions, 2 mM of racemic ketone 1 was used. A 400 μL reaction was initiated by addition of BirA and incubated at 30° C. At various timepoints, a 40 μL aliquot was removed and quenched with EDTA. Reactions were analyzed by reverse-phase HPLC as described above. The area ratios of AP and AP-probe conjugate peaks were converted to concentrations of AP-probe conjugate using a calibration curve generated by mixing known ratios of AP and AP-probe conjugate. The concentration of AP-probe conjugate was plotted versus time, and the reported initial rate was the slope of the line fit to the linear region of product synthesis.

The target in assay [2] is streptavidin (Streptomyces avidinii, UniProt P22629). Put plainly: streptavidin binding to ketone 1. The note with it: separate experiments; data not shown.
Assay [3] addresses wild-type BirA (Escherichia coli, UniProt P06709). Put plainly: HPLC assay for probe ligation to synthetic AP. The note with it: enantiomers separated by chiral HPLC; data not shown. Type of assay: biochemical, E. coli. The protocol:
as §1, with “For MALDI-TOF analysis, the product peak was collected, diluted with matrix solution (saturated α-cyano 4-hydroxycinnamic acid in 50% acetonitrile/water with 0.05% TFA), and spotted onto the sample target. Positive-ion MALDI-TOF data was acquired in reflector mode with external calibration.” left out

Sequence of BirA (P06709 whole entry): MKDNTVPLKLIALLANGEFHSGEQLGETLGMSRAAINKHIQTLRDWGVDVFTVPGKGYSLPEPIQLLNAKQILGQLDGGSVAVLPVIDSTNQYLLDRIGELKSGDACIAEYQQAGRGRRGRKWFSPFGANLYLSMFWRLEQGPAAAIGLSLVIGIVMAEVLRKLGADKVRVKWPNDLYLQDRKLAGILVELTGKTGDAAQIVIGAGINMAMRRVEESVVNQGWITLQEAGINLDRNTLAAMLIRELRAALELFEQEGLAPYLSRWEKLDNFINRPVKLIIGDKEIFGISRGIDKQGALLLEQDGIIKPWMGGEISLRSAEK
Sequence of streptavidin (P22629 25-183): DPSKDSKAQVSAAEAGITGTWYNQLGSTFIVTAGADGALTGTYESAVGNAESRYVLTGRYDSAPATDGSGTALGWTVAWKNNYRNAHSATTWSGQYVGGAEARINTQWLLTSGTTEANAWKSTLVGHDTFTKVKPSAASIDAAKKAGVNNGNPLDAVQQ
Sequence of wild-type BirA (P06709 whole entry): as the sequence (P06709 whole entry) above

In the case of `O=C(O)CCCC[C@@H]1SC[C@@H]2CC(=O)C[C@@H]21` [ketone 1], in assay [1] (0.091 μM BirA), the “enzyme turnovers after which the ligation rate slowed markedly” value is on record as about 100 enzyme turnovers. Also, the “initial rate for ligation to synthetic AP” value in assay [1] (2 mM racemic ketone 1, 0.091 μM BirA) was 0.258 ± 0.024 µM/min. In assay [1] (ketone 1 vs biotin, identical conditions), the “initial ligation rate, fold less than that for biotin ligation” value was found to be 3.7 fold. Also, the “binding of streptavidin to the probe itself” value in assay [2] is “does not bind”. Moreover, the “acceptance of separated enantiomers by BirA” value in assay [3] is reported as “Only one enantiomer was accepted”.
Turning to `O=C(O)CCCC[C@@H]1SC[C@@H]2NC(=O)N[C@@H]21` [biotin, reference compound], in assay [1] (0.091 μM BirA), the “conversion until which the ligation rate remained constant” value is over 50%. Moreover, the “initial rate for ligation to synthetic AP” value in assay [1] (1 mM biotin, 0.091 μM BirA) was found to be 0.954 ± 0.018 µM/min.
